EC50 data for six compounds are collected here from patent US20070134733A1, “Raman signature probes and their use in the detection and imaging of molecular processes and structures” (Parallax Biosystems, Inc., priority 2003, published 2007).

By EC50 is commonly meant the concentration at which the effect is half-maximal. Low readings indicate greater potency, high ones weaker potency.

Each structure is given as a SMILES string.

T1 sequence (P0AEK4 whole entry): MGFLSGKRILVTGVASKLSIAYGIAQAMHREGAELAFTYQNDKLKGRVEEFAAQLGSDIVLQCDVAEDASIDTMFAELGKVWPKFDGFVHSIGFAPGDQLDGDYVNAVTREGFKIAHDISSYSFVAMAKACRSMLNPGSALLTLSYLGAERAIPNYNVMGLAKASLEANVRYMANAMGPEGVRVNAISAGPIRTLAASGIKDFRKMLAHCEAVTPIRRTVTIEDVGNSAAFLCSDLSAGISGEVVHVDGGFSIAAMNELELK

The test concerns the target T1, NADH-dependent enoyl acyl carrier reductase (FabI) (Escherichia coli, UniProt P0AEK4).
T1 construct: made in house; host or cells: recombinant bacteria (strain from Dr. Charles Rock, St. Jude Children's Research Hospital)
In words: FabI enzyme inhibition assay (NADH consumption, absorbance at 340 nm). Type of test: biochemical, bacteria. To be noted: purified HIS-tagged FabI enzyme, NADH and substrate (e.g. Malonyl CoA or Crotonyl CoA). From the text:
Prior to using the potential RSP compounds as probes to detect bacteria the modified compounds will be tested for their ability to inhibit FabI. As shown with numerous studies that have explored the structure activity relationship of other FabI inhibitor analogs, there is a good correlation between the ability of a compound to inhibit the enzyme and its affinity towards the enzyme (Seefeld et al., Bioorg. Med. Chem. Lett. 11 (2001) 2061-2065). Recombinant bacteria expressing a HIS-tagged FabI protein are available from Dr. Charles Rock at St. Jude Children's Research Hospital in Memphis Tenn. The overexpressed protein is readily purified as a bioactive enzyme using conventional Ni^2+ chromatographic methods (Heath & Rock, J. Biol. Chem. 270 (1995) 26538-26542). Enzyme assays will be performed as described by Bergler et al. (J. Biol. Chem. 269 (1994) 5493-5496). Briefly, purified HIS-tagged FabI enzyme is added to a reaction containing NADH and an appropriate substrate (e.g. Malonyl CoA or Crotonyl CoA). The reductase activity is assayed by monitoring the decrease in absorbance at 340 nm due to the consumption of NADH. The inhibitory activity of all RSPs will be compared with Compound 1.
On to `[2H]c1c([2H])c([2H])c(C(=O)N2CCc3c(n(Cc4ccc(F)cc4)c4ccccc34)C2)c([2H])c1[2H]` [Compound 1B], for which the concentration giving a half-maximal response (EC50) came out at 1500 nM.

Consider `N#Cc1ccc(Cn2c3c(c4ccccc42)CCN(C(=O)c2ccc(Br)cc2)C3)cc1` [Compound 1C], for which the EC50 was found to be 2530 nM.

The compound `N#Cc1ccc(Cn2c3c(c4ccccc42)CCN(C(=O)c2ccc(Cl)cc2)C3)cc1` [Compound 1A] had an EC50 of 2520 nM.

In turn, `[2H]C([2H])([2H])C([2H])([2H])n1c2c(c3ccccc31)CCN(C(=O)c1ccc(Cl)cc1)C2` [Compound 1E] displayed an EC50 of 7830 nM. This EC50 is about 3.1-fold higher than that of the compound before.

`CC#CCn1c2c(c3ccccc31)CCN(C(=O)c1ccc(Cl)cc1)C2` [Compound 1D]: it took 6010 nM to reach a half-maximal effect (EC50).

Turning to `Nc1ccc(Cn2c3c(c4ccccc42)CCN(C(=O)c2ccc(O)cc2)C3)cc1` [Compound 1, reference compound], the EC50 is 670 nM.
